Like-named read-outs stand apart in the source and are kept apart here.
Columns and labels:
[1] = system: 68 primary molecular targets; test: Eurofins LeadProfilingScreen off-target panel (binding); conditions: 10 μM (binding), all targets except human muscarinic 2
Description: Compound 70 was tested using Eurofins LeadProfilingScreen®, which detects potential off-target activity and determines relative selectivity. The screen includes 68 primary molecular targets, including several CNS targets recommended by the EMEA (European Medicines Evaluation Agency) to evaluate drug dependence potential.

[2] = Fraction unbound in human plasma; assay type: in vitro ADME; conditions: read-out: Human Fu (plasma)
Description: (§1) Compound 70 was tested in several in in vitro assays to investigate both metabolism and pharmacokinetics. These assays may be performed according to known methods as generally described in the following references: Conde-Ceide et al. ACS Med. Chem. Lett. 2015, 6, 716-720; Morris et al. J. Med. Chem. 2014, 57, 10192-10197; and Bubser et al. ACS Chem. Neurosci. 2014, 5, 920-942.

[3] = Human intrinsic clearance; assay type: in vitro ADME
Description: as §1

[4] = biological target: P450 2D6 (Homo sapiens, UniProt P10635); test: P450 2D6 inhibition; assay type: in vitro ADME
Sequence of P450 2D6 (P10635 whole entry): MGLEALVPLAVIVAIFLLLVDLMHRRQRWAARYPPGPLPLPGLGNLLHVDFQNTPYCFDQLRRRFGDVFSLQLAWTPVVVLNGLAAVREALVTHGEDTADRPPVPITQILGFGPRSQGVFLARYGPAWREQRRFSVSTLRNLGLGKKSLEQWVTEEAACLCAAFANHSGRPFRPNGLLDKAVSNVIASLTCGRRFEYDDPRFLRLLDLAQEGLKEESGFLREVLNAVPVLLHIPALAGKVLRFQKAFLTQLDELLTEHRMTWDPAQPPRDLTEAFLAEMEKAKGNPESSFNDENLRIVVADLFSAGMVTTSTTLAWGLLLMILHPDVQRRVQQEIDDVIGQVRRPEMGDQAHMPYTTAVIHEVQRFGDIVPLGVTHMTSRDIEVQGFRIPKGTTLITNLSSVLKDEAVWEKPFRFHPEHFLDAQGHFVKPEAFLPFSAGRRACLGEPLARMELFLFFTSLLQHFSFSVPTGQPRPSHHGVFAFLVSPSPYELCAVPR
Description: as §1

[5] = biological target: P450 2C9 (Homo sapiens, UniProt P11712); test: P450 2C9 inhibition; assay type: in vitro ADME
Sequence of P450 2C9 (P11712 whole entry): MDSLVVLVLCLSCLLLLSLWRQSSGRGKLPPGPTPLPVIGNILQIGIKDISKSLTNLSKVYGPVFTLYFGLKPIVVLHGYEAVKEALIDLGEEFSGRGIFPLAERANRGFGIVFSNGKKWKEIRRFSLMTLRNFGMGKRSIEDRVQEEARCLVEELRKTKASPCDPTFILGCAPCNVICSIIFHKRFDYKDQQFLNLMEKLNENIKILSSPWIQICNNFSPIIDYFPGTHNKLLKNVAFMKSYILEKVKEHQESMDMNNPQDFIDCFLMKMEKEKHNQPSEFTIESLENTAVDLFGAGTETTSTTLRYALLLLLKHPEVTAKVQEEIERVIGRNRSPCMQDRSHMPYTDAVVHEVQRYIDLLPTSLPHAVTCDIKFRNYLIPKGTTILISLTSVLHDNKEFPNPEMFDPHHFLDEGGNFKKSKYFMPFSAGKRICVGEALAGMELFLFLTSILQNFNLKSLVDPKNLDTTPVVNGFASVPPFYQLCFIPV
Description: as §1

[6] = biological target: T1, Human M4 (Homo sapiens, UniProt P08173); test: Cellular cAMP Gi HTRF assay (agonist and potentiator modes); assay type: cell-based; parameters: expressed in transfected cells; host or cells: CHO cells stably expressing human M4; conditions: n = 2
T1 sequence (P08173 1-479): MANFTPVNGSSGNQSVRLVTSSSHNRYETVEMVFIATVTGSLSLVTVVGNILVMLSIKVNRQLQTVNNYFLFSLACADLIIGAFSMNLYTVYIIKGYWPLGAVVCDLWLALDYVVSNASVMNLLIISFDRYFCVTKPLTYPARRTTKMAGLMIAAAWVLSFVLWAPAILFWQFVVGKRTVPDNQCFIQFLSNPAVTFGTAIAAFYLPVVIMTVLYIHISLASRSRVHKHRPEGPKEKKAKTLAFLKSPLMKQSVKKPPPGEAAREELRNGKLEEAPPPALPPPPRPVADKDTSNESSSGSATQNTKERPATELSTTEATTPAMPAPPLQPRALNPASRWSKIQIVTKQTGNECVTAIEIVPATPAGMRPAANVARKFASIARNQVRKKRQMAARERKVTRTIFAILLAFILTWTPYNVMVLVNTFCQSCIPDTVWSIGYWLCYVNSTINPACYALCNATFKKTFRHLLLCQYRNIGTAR
From the text: Activation of the M4 receptor leads to the inhibition of cAMP production by coupling to Go proteins. To measure the level of CAMP inhibition by M4 allosteric modulators, a Homogeneous Time-Resolved Fluorescence (HTRF®) CAMP assay was employed using CHO cells stably expressing human or rat M4 receptors. The HTRF CAMP assay is a Time-Resolved Resonance Energy Transfer (TR-FRET) competitive immunoassay. Endogenous intracellular CAMP generated by cells competes with Europium cryptate-labeled cAMP (Europium donor, emission […]) for the binding to a cAMP antibody labeled with d2 (d2-acceptor, emission […]). Thus, the fluorescence emission ratio (665 nm/620 nm) is inversely proportional to the CAMP amount in the cells. Compound-mediated M4 activation results in an increase in HTRF ratio (665 nm/620 nm), indicative of a decrease in intracellular cAMP level. To monitor agonist activity, compounds were added to the M4 cells in the presence of an EC80 concentration of forskolin (adenylyl cyclase activator) which induces a submaximal intracellular cAMP level. To assess potentiator activity, compounds were added to the M4 cells with an EC50 concentration of forskolin in the presence of an EC20 concentration of acetylcholine. This functional assay allows determination of the potency and efficacy of compounds directly activating or potentiating the Gi/o-coupled M4 receptor; representative data are shown in Table 3.
Functional agonist and potentiator activities of compounds were determined by measuring cAMP levels in Chinese Hamster Ovary (CHO) cells stably expressing human or rat M4 muscarinic receptors using an HTRF CAMP Gi/o kit. Cells were maintained in F12 medium containing 10% FBS, 20 mM HEPES, 1× Antibiotic/Antimycotic, and G418 (500 μg/ml) in 37° C. humidified incubators in the presence of 5% CO2. The day before assay, the cells were trypsinized and resuspended in plating medium (growth medium without G418). The cells were plated to white, solid, flat-bottomed, 384 well plates at densities of 4,000 and 6,000 cells/10 μL/well, of human M4 and rat M4 cells, respectively. The cell plates were spun at 100×g for 1 min, then immediately placed in a 37° C. incubator in the presence of 5% CO2 overnight.
The next day, reagents were freshly diluted at a 2× concentration in assay buffer using F12 basal medium or stimulation buffer. All assay buffers contained 500 μM IBMX to block cAMP degradation. Activation of M4 by compounds was examined in cells stimulated with an EC80 concentration of forskolin to induce submaximal intracellular cAMP levels. Forskolin EC80 concentrations were determined from forskolin concentration response curves (CRCs) and ranged from 1.5 to 2.5 μM. […]

Cc1c(N2CCc3nc(C4(F)CC4)sc3C2)nc2nn(C)c(=O)n2c1C [Compound 70, 7-(2-(1-fluorocyclopropyl)-6,7-dihydrothiazolo[5,4-c]pyridin-5(4H)-yl)-2,5,6-trimethyl-[1,2,4]triazolo[4,3-a]pyrimidin-3(2H)-one]
inhibition of each target in the LeadProfilingScreen [1]: < 50%
fraction unbound [2]: 0.217
CLint scaled [3]: 9 mL/min/kg
IC50 [4]: > 30 µM
IC50 [5]: > 30 µM
hM4_cAMP Activity Agonist % ACh Max ([6]; agonist mode, EC80 forskolin, no acetylcholine): 81 % ACh Max
EC50 ([6]; agonist mode, EC80 forskolin, no acetylcholine, read-out: hM4_cAMP Activity Agonist EC50): 19 nM
hM4_cAMP Activity PAM % ACh Max ([6]; potentiator mode, forskolin plus EC20 acetylcholine): 74 % ACh Max
EC50 ([6]; potentiator mode, forskolin plus EC20 acetylcholine, read-out: hM4_cAMP Activity PAM EC50): 11 nM

Source: US12139498B1, “Positive allosteric modulators of the muscarinic acetylcholine receptor M4” (Vanderbilt University, priority 2023, dated 2024)
